Our source for the EC50 values is BindingDB's records for doi:10.1016/j.bmcl.2020.127353 (Lanzhou University, 2020).

The nature of this experiment: Binding affinity to NK1R (unknown origin) expressed in HEK293 cells assessed as reduction in cell viability incubated for 96 hrs by MTT assay. On the technique in general: Formazan colour is commonly taken as a measure of viable cells.

As a reminder, the EC50 is the concentration at which the effect is half-maximal.

Where a SMILES comes first, the peptide text is derived from it. The star is where a group is joined. Stearoyl = CCCCCCCCCCCCCCCCCC(=O)*

Turning to `CCCCCCCCCCCCCCCCCC(=O)N[C@@H](CCCCN)C(=O)N[C@@H](Cc1c[nH]c2ccccc12)C(=O)N[C@@H](CCCCN)C(=O)N[C@@H](CC(C)C)C(=O)N[C@@H](CCC(=O)O)C(=O)N[C@@H](CCCCN)C(=O)N[C@@H](CCCCN)C(=O)N[C@H](C(=O)NCC(=O)N[C@@H](C)C(=O)N[C@H](C(=O)N[C@@H](CC(C)C)C(=O)N[C@H](C(=O)N[C@@H](CS)C(=O)N[C@H](C(=O)N[C@@H](CC(C)C)C(=O)N[C@@H](CCCNC(=N)N)C(=O)N1CCC[C@H]1C(=O)N[C@@H](CCCCN)C(=O)N1CCC[C@H]1C(=O)N[C@@H](CCC(N)=O)C(=O)N[C@@H](CCC(N)=O)C(=O)N[C@@H](Cc1ccccc1)C(=O)N[C@@H](Cc1ccccc1)C(=O)NCC(=O)N[C@@H](CC(C)C)C(=O)N[C@@H](CCSC)C(N)=O)C(C)C)[C@@H](C)CC)C(C)C)[C@@H](C)CC` (Stearoyl-KWKLEKKIGAVLICVLRPKPQQFFGLM-NH2), the EC50 was determined as 5.3 µM.
